The values that follow come from patent US20040121994A1, “Novel amides that activate soluble guanylate cyclase” (priority 2002, published 2004).

This test has as its target T1, soluble guanylate cyclase (sGC), α1 and β1 subunits of guanylate cyclase expressed in Sf9 cells (Homo sapiens, UniProt Q02108+Q02153).
T1 construct: made in house; host or cells: Sf9 insect cells (baculovirus co-infection)
T1 sequence (Q02108 1-690): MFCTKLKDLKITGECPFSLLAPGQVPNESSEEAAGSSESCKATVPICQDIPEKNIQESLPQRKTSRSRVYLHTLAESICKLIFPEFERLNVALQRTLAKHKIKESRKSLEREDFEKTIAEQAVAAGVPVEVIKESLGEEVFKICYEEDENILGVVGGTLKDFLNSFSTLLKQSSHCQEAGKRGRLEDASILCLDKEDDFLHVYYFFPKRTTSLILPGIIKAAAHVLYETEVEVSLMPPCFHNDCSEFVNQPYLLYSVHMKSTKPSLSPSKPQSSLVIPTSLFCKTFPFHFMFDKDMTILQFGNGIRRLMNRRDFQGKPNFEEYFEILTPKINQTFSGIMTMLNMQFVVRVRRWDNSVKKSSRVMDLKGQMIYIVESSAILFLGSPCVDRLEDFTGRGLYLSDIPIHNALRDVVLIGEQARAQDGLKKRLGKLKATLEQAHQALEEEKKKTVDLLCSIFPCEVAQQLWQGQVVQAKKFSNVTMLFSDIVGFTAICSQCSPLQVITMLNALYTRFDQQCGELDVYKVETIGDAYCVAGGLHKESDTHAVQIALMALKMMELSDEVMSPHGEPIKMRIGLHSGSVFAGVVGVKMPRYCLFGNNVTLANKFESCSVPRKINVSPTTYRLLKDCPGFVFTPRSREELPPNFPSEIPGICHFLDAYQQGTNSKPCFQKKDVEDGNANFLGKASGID
T1 sequence (Q02153 1-619): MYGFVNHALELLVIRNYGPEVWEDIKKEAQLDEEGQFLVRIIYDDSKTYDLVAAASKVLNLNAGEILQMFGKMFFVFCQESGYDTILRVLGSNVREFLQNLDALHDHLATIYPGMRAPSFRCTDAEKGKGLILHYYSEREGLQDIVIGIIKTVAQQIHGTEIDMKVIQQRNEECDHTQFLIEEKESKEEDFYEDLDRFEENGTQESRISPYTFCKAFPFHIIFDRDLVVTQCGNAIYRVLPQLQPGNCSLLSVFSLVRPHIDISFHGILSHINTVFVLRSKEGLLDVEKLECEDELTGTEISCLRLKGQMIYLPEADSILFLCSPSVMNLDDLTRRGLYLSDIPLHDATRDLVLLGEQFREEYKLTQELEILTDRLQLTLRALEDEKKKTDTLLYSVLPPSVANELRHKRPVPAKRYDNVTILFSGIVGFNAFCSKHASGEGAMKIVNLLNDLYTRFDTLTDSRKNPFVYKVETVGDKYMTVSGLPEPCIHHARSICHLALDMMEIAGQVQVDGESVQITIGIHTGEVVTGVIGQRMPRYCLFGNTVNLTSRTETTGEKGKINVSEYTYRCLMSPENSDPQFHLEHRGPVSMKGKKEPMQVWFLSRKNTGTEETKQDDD
The experiment in a line: Guanylate cyclase assay (formation of cyclic GMP from GTP). It is filed as biochemical. Particulars: for Mean activation at 100 μM: (activity of compound at 100 μM with 1 μM SNP)−(activity of compound at 100 μM)/(activity of SNP at 1 μM)−(basal activity of sGC); for Mean efficacy of compound combined with 1 μM of SNP, [%]: compound at 100 μM with 1 μM sodium nitro prusside (SNP); for Mean efficacy of compound combined with 1 μM of SNP, [%] / Emax at 100 µM: normalized with the activity of 100 μM YC-1 (without SNP) as 100%; for Emax at 100 µM: compound at 100 μM without SNP, read-out: Mean basal efficacy of compound alone at 100 μM, [%]. The gist of the method:
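Sf9 high-speed supernatant with human sGC α1/β1 converted 1 mM GTP to cGMP over 15 min at 37 °C (50 mM Tris pH 7.6, 4 mM MgCl2, 0.5 mM IBMX); cGMP by enzyme immunoassay. Compounds at 100 μM, with or without 1 μM SNP; activity expressed relative to 100 μM YC-1 (no SNP) as 100%.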

Structures are written as SMILES.

Take `COc1ccc(Sc2ccccc2/C=C/C(=O)NC2CCC(O)CC2)cc1` (stereo not drawn) [Example 51, (2E)-N-(4-hydroxycyclohexyl)-3-{2-[(4-methoxyphenyl)thio]phenyl}acrylamide]: the “Mean activation at 100 μM” value is 7.2; the “Mean efficacy of compound combined with 1 μM of SNP, [%]” value (from here on “Mean efficacy … [%]”) is given as 258%; the Emax at 100 µM is 119%.
In the case of `Cc1cccc(Sc2ccccc2/C=C/C(=O)NC2CCC(O)CC2)c1` (stereo not drawn) [Example 52, (2E)-N-(4-hydroxycyclohexyl)-3-{2-[(3-methylphenyl)thio]phenyl}acrylamide], the “Mean activation at 100 μM” value was 2.7; the “Mean efficacy … [%]” value is reported as 50%; the Emax at 100 µM was 11%.
For `Cc1ccc(Sc2ccccc2/C=C/C(=O)NC(C)CCCC(C)(C)O)c(C)c1` (stereo not drawn) [Example 53, (2E)-3-{2-[(2,4-dimethylphenyl)thio]phenyl}-N-(5-hydroxy-1,5-dimethylhexyl)acrylamide] the same measures were 1.7, 10% and 4%.
Turning to `O=C(/C=C/c1cc(F)ccc1Sc1ccc(Cl)cc1)NCCCCO` [Example 54, (2E)-3-{2-[(4-chlorophenyl)thio]-5-fluorophenyl}-N-(4-hydroxybutyl)acrylamide], the “Mean activation at 100 μM” value stood at 13.0; the “Mean efficacy … [%]” value stood at 186%; the Emax at 100 µM worked out at 85%.
In the same order, the values of `CC(C)CCSc1ccccc1/C=C/C(=O)NC1CCC(O)CC1` (stereo not drawn) [Example 55, (2E)-N-(4-hydroxycyclohexyl)-3-{2-[(3-methylbutyl)thio]phenyl}acrylamide] are 5.3, 213% and 143%.
In the same order, the values of `CC(C)CCSc1ccccc1/C=C/C(=O)NC1CCCCC1O` (stereo not drawn) [Example 56, (2E)-N-(2-hydroxycyclohexyl)-3-{2-[(3-methylbutyl)thio]phenyl}acrylamide] are 8.3, 276% and 169%.
In the same order, the values of `CC(C)CCSc1ccccc1/C=C/C(=O)NCCCO` [Example 57, (2E)-N-(3-hydroxypropyl)-3-{2-[(3-methylbutyl)thio]phenyl}acrylamide] are 8.4, 303% and 200%.
As for `CC(C)CCSc1ccccc1/C=C/C(=O)NCCCCO` [Example 58, (2E)-N-(4-hydroxybutyl)-3-{2-[(3-methylbutyl)thio]phenyl}acrylamide], the “Mean activation at 100 μM” value came to 7.8; the “Mean efficacy … [%]” value was 307%; the Emax at 100 µM turned out to be 215%.
Consider `CC(C)CCSc1ccccc1/C=C/C(=O)NCCCCCO` [Example 59, (2E)-N-(5-hydroxypentyl)-3-{2-[(3-methylbutyl)thio]phenyl}acrylamide], for which the “Mean activation at 100 μM” value turned out to be 8.4; the “Mean efficacy … [%]” value worked out at 221%; the Emax at 100 µM is 162%.
Regarding `CC(C)CCSc1ccccc1/C=C/C(=O)N1CCC(O)CC1` [Example 60, 1-((2E)-3-{2-[(3-methylbutyl)thio]phenyl}-2-propenoyl)-4-piperidinol], the “Mean activation at 100 μM” value is 8.3; the “Mean efficacy … [%]” value is 165%; the Emax at 100 µM amounted to 115%.
Regarding `CC(C)CCSc1ccccc1/C=C/C(=O)N1CCCC(O)C1` (stereo not drawn) [Example 61, 1-((2E)-3-{2-[(3-methylbutyl)thio]phenyl}-2-propenoyl)-3-piperidinol], the “Mean activation at 100 μM” value came to 10.2; the “Mean efficacy … [%]” value worked out at 165%; the Emax at 100 µM was 103%.
With `CC(C)CCSc1ccccc1/C=C/C(=O)N1CCC(C(N)=O)CC1` [Example 63, 1-((2E)-3-{2-[(3-methylbutyl)thio]phenyl}-2-propenoyl)-4-piperidinecarboxamide], the “Mean activation at 100 μM” value is listed as 6.8; the “Mean efficacy … [%]” value was found to be 164%; the Emax at 100 µM stood at 125%.
